Data taken from PubChem BioAssay (NCI).
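Compound exposure: 48 hours, 5 concentrations, 96-well plates. TGI: concentration producing complete growth inhibition.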

Key:
Assay in all cases: NCI tumour cell line growth inhibition, 48 h
OVCAR-4 ovarian = tested on: OVCAR-4 ovarian
MCF7 breast = tested on: MCF7 breast
SK-OV-3 ovarian = tested on: SK-OV-3 ovarian
HL-60(TB) leukemia = tested on: HL-60(TB) leukemia
SW-620 colon = tested on: SW-620 colon
U251 CNS = tested on: U251 CNS
LOX IMVI melanoma = tested on: LOX IMVI melanoma
MDA-N = tested on: MDA-N
A498 renal = tested on: A498 renal
EKVX NSCLC = tested on: EKVX NSCLC
M14 melanoma = tested on: M14 melanoma
NCI-H23 lung = tested on: NCI-H23 lung
786-0 renal = tested on: 786-0 renal
COLO 205 colon = tested on: COLO 205 colon
IGROV1 ovarian = tested on: IGROV1 ovarian
MALME-3M melanoma = tested on: MALME-3M melanoma
HS 578T breast = tested on: HS 578T breast
SK-MEL-5 melanoma = tested on: SK-MEL-5 melanoma
UACC-62 melanoma = tested on: UACC-62 melanoma
T-47D breast = tested on: T-47D breast
OVCAR-8 ovarian = tested on: OVCAR-8 ovarian
HCT-116 colon = tested on: HCT-116 colon
A549 NSCLC = tested on: A549 NSCLC
PC-3 prostate = tested on: PC-3 prostate
OVCAR-3 ovarian = tested on: OVCAR-3 ovarian
UO-31 renal = tested on: UO-31 renal
NCI-H460 lung = tested on: NCI-H460 lung
RPMI-8226 leukemia = tested on: RPMI-8226 leukemia
KM12 colon = tested on: KM12 colon
ACHN renal = tested on: ACHN renal
SF-268 CNS = tested on: SF-268 CNS
MDA-MB-435 = tested on: MDA-MB-435
CAKI-1 renal = tested on: CAKI-1 renal
SK-MEL-28 melanoma = tested on: SK-MEL-28 melanoma
HT29 colon = tested on: HT29 colon
MOLT-4 leukemia = tested on: MOLT-4 leukemia
SF-295 CNS = tested on: SF-295 CNS
HCC-2998 colon = tested on: HCC-2998 colon
SNB-75 CNS = tested on: SNB-75 CNS
SK-MEL-2 melanoma = tested on: SK-MEL-2 melanoma
NCI-H522 lung = tested on: NCI-H522 lung
MDA-MB-231 breast = tested on: MDA-MB-231 breast
SNB-19 CNS = tested on: SNB-19 CNS
UACC-257 melanoma = tested on: UACC-257 melanoma
TK-10 renal = tested on: TK-10 renal
CCRF-CEM leukemia = tested on: CCRF-CEM leukemia
RXF 393 renal = tested on: RXF 393 renal
OVCAR-5 ovarian = tested on: OVCAR-5 ovarian
NCI/ADR-RES ovarian = tested on: NCI/ADR-RES ovarian
HOP-92 NSCLC = tested on: HOP-92 NSCLC
K-562 leukemia = tested on: K-562 leukemia
DU-145 prostate = tested on: DU-145 prostate
BT-549 breast = tested on: BT-549 breast
HCT-15 colon = tested on: HCT-15 colon
HOP-62 NSCLC = tested on: HOP-62 NSCLC

In the case of `O=C1/C(=C/c2cccc([N+](=O)[O-])c2)N=C(c2ccccc2)N1c1ccc2c(c1)Sc1cc(N3C(=O)/C(=C/c4cccc([N+](=O)[O-])c4)N=C3c3ccccc3)ccc1N2`, the TGI (OVCAR-4 ovarian) is reported as 34.5 µM, the TGI (MCF7 breast) is reported as 37.9 µM and the TGI (SK-OV-3 ovarian) is reported as 30.9 µM. For the same molecule, the TGI (HL-60(TB) leukemia) was 64.6 µM, the TGI (SW-620 colon) was over 100 µM and the TGI (U251 CNS) was 66.5 µM. It also gave a TGI (LOX IMVI melanoma) of 74.1 µM, a TGI (MDA-N) of 35 µM and a TGI (A498 renal) of 55.1 µM. It also gave a TGI (EKVX NSCLC) of 62.9 µM, a TGI (M14 melanoma) of 87.9 µM and a TGI (NCI-H23 lung) of 92.4 µM. It also gave a TGI (786-0 renal) of 46.3 µM, a TGI (COLO 205 colon) of over 100 µM and a TGI (IGROV1 ovarian) of 45.3 µM. For the same molecule, the TGI (MALME-3M melanoma) was 41.1 µM, the TGI (HS 578T breast) was over 100 µM and the TGI (SK-MEL-5 melanoma) was 31 µM. The TGI (UACC-62 melanoma) was 31.7 µM, the TGI (T-47D breast) was 80 µM and the TGI (OVCAR-8 ovarian) was 78.8 µM. For the same molecule, the TGI (HCT-116 colon) was over 100 µM, the TGI (A549 NSCLC) was over 100 µM and the TGI (PC-3 prostate) was 52.8 µM. The TGI (OVCAR-3 ovarian) was 28.4 µM, the TGI (UO-31 renal) was over 100 µM and the TGI (NCI-H460 lung) was over 100 µM. The TGI (RPMI-8226 leukemia) was over 100 µM, the TGI (KM12 colon) was over 100 µM and the TGI (ACHN renal) was over 100 µM. For the same molecule, the TGI (SF-268 CNS) was 40.5 µM, the TGI (MDA-MB-435) was 34.5 µM and the TGI (CAKI-1 renal) was 54 µM. For the same molecule, the TGI (SK-MEL-28 melanoma) was over 100 µM, the TGI (HT29 colon) was over 100 µM and the TGI (MOLT-4 leukemia) was over 100 µM. The TGI (SF-295 CNS) was 32.6 µM, the TGI (HCC-2998 colon) was over 100 µM and the TGI (SNB-75 CNS) was 34.3 µM. It also gave a TGI (SK-MEL-2 melanoma) of 39.9 µM, a TGI (NCI-H522 lung) of 41.9 µM and a TGI (MDA-MB-231 breast) of 89.8 µM. It also gave a TGI (SNB-19 CNS) of 40.2 µM, a TGI (UACC-257 melanoma) of 37.5 µM and a TGI (TK-10 renal) of 39.4 µM. The TGI (CCRF-CEM leukemia) was 55.3 µM, the TGI (RXF 393 renal) was 62.2 µM and the TGI (OVCAR-5 ovarian) was 35.8 µM. For the same molecule, the TGI (NCI/ADR-RES ovarian) was over 100 µM, the TGI (HOP-92 NSCLC) was 85.2 µM and the TGI (K-562 leukemia) was 96.7 µM. For the same molecule, the TGI (DU-145 prostate) was over 100 µM, the TGI (BT-549 breast) was 52.4 µM and the TGI (HCT-15 colon) was over 100 µM. For the same molecule, the TGI (HOP-62 NSCLC) was 49.5 µM.
